Tests used:
Format in all cases: functional
[1] = species: Homo sapiens; assay: Ability to inhibit human complement-mediated erythrocyte lysis by alternate pathway
[2] = species: Homo sapiens; assay: Ability to inhibit human complement-mediated erythrocyte lysis by classical pathway
[3] = species: Homo sapiens; assay: Ability to inhibit human complement-mediated erythrocyte lysis by classical pathway at 2000 uM concentration

| SMILES | IH50 [1] [µM] | IH50 [2] [µM] | inhibition at 2000 µM [3] [%] |
| --- | --- | --- | --- |
| COc1ccc(C(=O)O)c2c1CC(C)(C1CC[C@](C)(O)C(O)C1)O2 (stereo not given in full) | >2550 | 1600 |  |
| C=C(Cc1c(OC)ccc(C(=O)O)c1O)C1CC[C@](C)(O)C(O)C1 (stereo not given in full) |  |  | 24 |
| C[C@@H]1CCC2C(C)(C)[C@H](O)[C@H](O)C[C@]2(C)[C@@]12Cc1c(O)cc(C(=O)[O-])c(C=O)c1O2.[Na+] (stereo not given in full) | 850 | 570 |  |
